Publication PMC7156458, “Synthetic biology based construction of biological activity-related library of fungal decalin-containing diterpenoid pyrones” (Nature Communications, 2020)

Target: Aβ42 (Homo sapiens, UniProt P05067)
Assay: Th-T (thioflavin-T) assay of Aβ42 aggregation
Assay type: biochemical
Conditions: for Th-T fluorescence, mean of three wells: compound at 50

Aβ42, sequence (P05067 672-713): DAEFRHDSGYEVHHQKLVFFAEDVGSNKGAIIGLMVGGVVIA

## C=C1CCC2C(C)(CCC=C(C)C)C(O)CCC2(C)C1Cc1c(OC)oc(CO)c(C)c1=O (stereo not drawn) [Compound 12]
Reading M54 of time course
  Th-T fluorescence, mean of three wells: 1.475
Reading M55 of time course
  Th-T fluorescence, mean of three wells: 1.456
Reading M56 of time course
  Th-T fluorescence, mean of three wells: 1.467
Reading M57 of time course
  Th-T fluorescence, mean of three wells: 1.475
Reading M58 of time course
  Th-T fluorescence, mean of three wells: 1.462
Reading M59 of time course
  Th-T fluorescence, mean of three wells: 1.454
Reading M60 of time course
  Th-T fluorescence, mean of three wells: 1.444
Reading M61 of time course
  Th-T fluorescence, mean of three wells: 1.462
Reading M62 of time course
  Th-T fluorescence, mean of three wells: 1.445
Concentration 10, unit not given, time-course reading M129
  Th-T fluorescence of Aβ42 with compound, mean of three wells (Fig. 7a source data): 2.41
Concentration 10, unit not given, time-course reading M130
  Th-T fluorescence of Aβ42 with compound, mean of three wells (Fig. 7a source data): 2.392
Concentration 10, unit not given, time-course reading M131
  Th-T fluorescence of Aβ42 with compound, mean of three wells (Fig. 7a source data): 2.376
Concentration 10, unit not given, time-course reading M132
  Th-T fluorescence of Aβ42 with compound, mean of three wells (Fig. 7a source data): 2.3677
Concentration 10, unit not given, time-course reading M133
  Th-T fluorescence of Aβ42 with compound, mean of three wells (Fig. 7a source data): 2.357
Concentration 10, unit not given, time-course reading M134
  Th-T fluorescence of Aβ42 with compound, mean of three wells (Fig. 7a source data): 2.346
Concentration 10, unit not given, time-course reading M135
  Th-T fluorescence of Aβ42 with compound, mean of three wells (Fig. 7a source data): 2.32
Concentration 10, unit not given, time-course reading M136
  Th-T fluorescence of Aβ42 with compound, mean of three wells (Fig. 7a source data): 2.323
Concentration 10, unit not given, time-course reading M137
  Th-T fluorescence of Aβ42 with compound, mean of three wells (Fig. 7a source data): 2.294
Concentration 10, unit not given, time-course reading M138
  Th-T fluorescence of Aβ42 with compound, mean of three wells (Fig. 7a source data): 2.29
Concentration 10, unit not given, time-course reading M139
  Th-T fluorescence of Aβ42 with compound, mean of three wells (Fig. 7a source data): 2.265
Concentration 10, unit not given, time-course reading M140
  Th-T fluorescence of Aβ42 with compound, mean of three wells (Fig. 7a source data): 2.265
Concentration 10, unit not given, time-course reading M141
  Th-T fluorescence of Aβ42 with compound, mean of three wells (Fig. 7a source data): 2.2429
Concentration 10, unit not given, time-course reading M142
  Th-T fluorescence of Aβ42 with compound, mean of three wells (Fig. 7a source data): 2.235
Concentration 10, unit not given, time-course reading M143
  Th-T fluorescence of Aβ42 with compound, mean of three wells (Fig. 7a source data): 2.219
Concentration 10, unit not given, time-course reading M144
  Th-T fluorescence of Aβ42 with compound, mean of three wells (Fig. 7a source data): 2.211
Concentration 10, unit not given, time-course reading M145
  Th-T fluorescence of Aβ42 with compound, mean of three wells (Fig. 7a source data): 2.191
Concentration 20, unit not given, time-course reading M129
  Th-T fluorescence of Aβ42 with compound, mean of three wells (Fig. 7a source data): 2.166
Concentration 20, unit not given, time-course reading M130
  Th-T fluorescence of Aβ42 with compound, mean of three wells (Fig. 7a source data): 2.19
Concentration 20, unit not given, time-course reading M131
  Th-T fluorescence of Aβ42 with compound, mean of three wells (Fig. 7a source data): 2.201
Concentration 20, unit not given, time-course reading M132
  Th-T fluorescence of Aβ42 with compound, mean of three wells (Fig. 7a source data): 2.206
Concentration 20, unit not given, time-course reading M133
  Th-T fluorescence of Aβ42 with compound, mean of three wells (Fig. 7a source data): 2.24
Concentration 20, unit not given, time-course reading M134
  Th-T fluorescence of Aβ42 with compound, mean of three wells (Fig. 7a source data): 2.215
Concentration 20, unit not given, time-course reading M135
  Th-T fluorescence of Aβ42 with compound, mean of three wells (Fig. 7a source data): 2.232
Concentration 20, unit not given, time-course reading M136
  Th-T fluorescence of Aβ42 with compound, mean of three wells (Fig. 7a source data): 2.218
Concentration 20, unit not given, time-course reading M137
  Th-T fluorescence of Aβ42 with compound, mean of three wells (Fig. 7a source data): 2.204
Concentration 20, unit not given, time-course reading M138
  Th-T fluorescence of Aβ42 with compound, mean of three wells (Fig. 7a source data): 2.229
Concentration 20, unit not given, time-course reading M139
  Th-T fluorescence of Aβ42 with compound, mean of three wells (Fig. 7a source data): 2.207
Concentration 20, unit not given, time-course reading M140
  Th-T fluorescence of Aβ42 with compound, mean of three wells (Fig. 7a source data): 2.233
Concentration 20, unit not given, time-course reading M141
  Th-T fluorescence of Aβ42 with compound, mean of three wells (Fig. 7a source data): 2.207
Concentration 20, unit not given, time-course reading M142
  Th-T fluorescence of Aβ42 with compound, mean of three wells (Fig. 7a source data): 2.239
Concentration 20, unit not given, time-course reading M143
  Th-T fluorescence of Aβ42 with compound, mean of three wells (Fig. 7a source data): 2.219
Concentration 20, unit not given, time-course reading M144
  Th-T fluorescence of Aβ42 with compound, mean of three wells (Fig. 7a source data): 2.234
Concentration 20, unit not given, time-course reading M145
  Th-T fluorescence of Aβ42 with compound, mean of three wells (Fig. 7a source data): 2.206
Concentration 50, unit not given, time-course reading M129
  Th-T fluorescence of Aβ42 with compound, mean of three wells (Fig. 7a source data): 1.589
Concentration 50, unit not given, time-course reading M130
  Th-T fluorescence of Aβ42 with compound, mean of three wells (Fig. 7a source data): 1.591
Concentration 50, unit not given, time-course reading M131
  Th-T fluorescence of Aβ42 with compound, mean of three wells (Fig. 7a source data): 1.579
Concentration 50, unit not given, time-course reading M132
  Th-T fluorescence of Aβ42 with compound, mean of three wells (Fig. 7a source data): 1.5892
Concentration 50, unit not given, time-course reading M133
  Th-T fluorescence of Aβ42 with compound, mean of three wells (Fig. 7a source data): 1.602
Concentration 50, unit not given, time-course reading M134
  Th-T fluorescence of Aβ42 with compound, mean of three wells (Fig. 7a source data): 1.607
Concentration 50, unit not given, time-course reading M135
  Th-T fluorescence of Aβ42 with compound, mean of three wells (Fig. 7a source data): 1.608
Concentration 50, unit not given, time-course reading M136
  Th-T fluorescence of Aβ42 with compound, mean of three wells (Fig. 7a source data): 1.609
Concentration 50, unit not given, time-course reading M137
  Th-T fluorescence of Aβ42 with compound, mean of three wells (Fig. 7a source data): 1.626
Concentration 50, unit not given, time-course reading M138
  Th-T fluorescence of Aβ42 with compound, mean of three wells (Fig. 7a source data): 1.633
Concentration 50, unit not given, time-course reading M139
  Th-T fluorescence of Aβ42 with compound, mean of three wells (Fig. 7a source data): 1.6439
Concentration 50, unit not given, time-course reading M140
  Th-T fluorescence of Aβ42 with compound, mean of three wells (Fig. 7a source data): 1.64
Concentration 50, unit not given, time-course reading M141
  Th-T fluorescence of Aβ42 with compound, mean of three wells (Fig. 7a source data): 1.647
Concentration 50, unit not given, time-course reading M142
  Th-T fluorescence of Aβ42 with compound, mean of three wells (Fig. 7a source data): 1.661
